Laboratory results from ChEMBL document CHEMBL1135366, “An N1-hydrogen bonding model for flavin coenzyme” (Bioorg Med Chem Lett, 2002).

How the values were obtained:
[1] = Reaction constant k1 value for the oxidation of the 1-benzyl-dihydronicotinamide in 100 mM, pH 7.4 phosphate buffer at 15 degrees C
[2] = Reaction constant k1 value for the oxidation of the 1-benzyl-dihydronicotinamide in 100 mM, pH 7.4 phosphate buffer at 30 degrees C
[3] = Reaction constant k-1 value for sulfite (100 mM) addition at pH 7.4 phosphate buffer at 30 degrees C
[4] = Dissociation constant value was determined
[5] = Reaction constant k1 value for sulfite (100 mM) addition at pH 7.4 phosphate buffer at 30 degrees C

K1 [1] [M⁻¹ s⁻¹]	K1 [2] [M⁻¹ s⁻¹]	K-1 [3] [min⁻¹]	Kd [4] [mM]	K1 [5] [M⁻¹ s⁻¹]	Compound
10.2	25.7	0.651	1470	0.00738	O=c1nc2n3c4c(cccc4nc-2c(=O)[nH]1)CCC3
15.5	42.9				Cn1c2nc(=O)[nH]c(=O)c-2nc2ccccc21
10.8	24.9	0.183	371	0.00822	O=c1nc2n3c4c(cccc4nc-2c(=O)[nH]1)CCC3CO (configuration not stated)
